The values that follow come from PubChem BioAssay (NCI).

Structures are written as SMILES.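 Protocol summary: plate cells (96-well), add compound at 5 concentrations, incubate 48 h, interpolate endpoints linearly. At the TGI there is no net growth.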 Some results are limits rather than exact numbers.

The subject of the first experiment is 786-0 renal. The experiment is described as follows: inhibition of tumour cell growth, NCI panel, 48 h.
As to `COc1ccc(C2OC(N)=C(C#N)C3=C2CCCC3C)cc1OC` (configuration not stated), the TGI is above 100 µM.

The compound `COc1ccc(CC2c3cc(OC)c(OC)cc3CC[N+]2(C)C)cc1OC` (configuration not stated) had a TGI above 100 µM.

Turning to `O=C(O)c1nc2ccc(C(F)(F)F)cc2nc1NCc1ccc(F)cc1`, the TGI is 28 µM.

In turn, `Oc1cc(O)cc(-c2nc3cc(F)ccc3s2)c1` had a TGI of 47.1 µM.

Another experiment has as its system A498 renal. As to the kind of experiment: inhibition of tumour cell growth, NCI panel, 48 h.
Compound `COc1ccc(C2OC(N)=C(C#N)C3=C2CCCC3C)cc1OC` (configuration not stated) showed a TGI above 100 µM.

`COc1ccc(CC2c3cc(OC)c(OC)cc3CC[N+]2(C)C)cc1OC` (configuration not stated) registered a TGI above 100 µM.

The compound `O=C(O)c1nc2ccc(C(F)(F)F)cc2nc1NCc1ccc(F)cc1` registered a TGI of 55.4 µM.

In the case of `Oc1cc(O)cc(-c2nc3cc(F)ccc3s2)c1`, the TGI was found to be 47.1 µM.

The test system of a further experiment is A549 NSCLC. As to the kind of experiment: inhibition of tumour cell growth, NCI panel, 48 h.
`COc1ccc(CC2c3cc(OC)c(OC)cc3CC[N+]2(C)C)cc1OC` (configuration not stated): the TGI is above 100 µM.

`O=C(O)c1nc2ccc(C(F)(F)F)cc2nc1NCc1ccc(F)cc1`: the TGI was found to be 42.2 µM.

For the compound `Oc1cc(O)cc(-c2nc3cc(F)ccc3s2)c1`, the TGI was above 100 µM.

Another experiment concerns ACHN renal. The experiment is described as follows: inhibition of tumour cell growth, NCI panel, 48 h.
Consider `COc1ccc(C2OC(N)=C(C#N)C3=C2CCCC3C)cc1OC` (configuration not stated), for which the TGI was above 100 µM.

Turning to `COc1ccc(CC2c3cc(OC)c(OC)cc3CC[N+]2(C)C)cc1OC` (configuration not stated), the TGI is above 100 µM.

The compound `O=C(O)c1nc2ccc(C(F)(F)F)cc2nc1NCc1ccc(F)cc1` gave a TGI above 100 µM.

For the compound `Oc1cc(O)cc(-c2nc3cc(F)ccc3s2)c1`, the TGI was 81.3 µM.

In a further experiment the test system is BT-549 breast. The experiment is described as follows: inhibition of tumour cell growth, NCI panel, 48 h.
`COc1ccc(C2OC(N)=C(C#N)C3=C2CCCC3C)cc1OC` (configuration not stated): the TGI is above 100 µM.

With `COc1ccc(CC2c3cc(OC)c(OC)cc3CC[N+]2(C)C)cc1OC` (configuration not stated), the TGI is above 100 µM.

`O=C(O)c1nc2ccc(C(F)(F)F)cc2nc1NCc1ccc(F)cc1` had a TGI of 90.2 µM.

On to `Oc1cc(O)cc(-c2nc3cc(F)ccc3s2)c1`, for which the TGI was 53.2 µM.

In a further experiment the test system is CAKI-1 renal. As to the kind of experiment: inhibition of tumour cell growth, NCI panel, 48 h.
In turn, `COc1ccc(C2OC(N)=C(C#N)C3=C2CCCC3C)cc1OC` (configuration not stated) yielded a TGI above 100 µM.

For `COc1ccc(CC2c3cc(OC)c(OC)cc3CC[N+]2(C)C)cc1OC` (configuration not stated), the TGI was above 100 µM.

With `O=C(O)c1nc2ccc(C(F)(F)F)cc2nc1NCc1ccc(F)cc1`, the TGI is above 100 µM.

Compound `Oc1cc(O)cc(-c2nc3cc(F)ccc3s2)c1` yielded a TGI of 53.8 µM.

The test system of a further experiment is CCRF-CEM leukemia. As to the kind of experiment: inhibition of tumour cell growth, NCI panel, 48 h.
Compound `COc1ccc(C2OC(N)=C(C#N)C3=C2CCCC3C)cc1OC` (configuration not stated) showed a TGI above 100 µM.

In turn, `COc1ccc(CC2c3cc(OC)c(OC)cc3CC[N+]2(C)C)cc1OC` (configuration not stated) yielded a TGI above 100 µM.

In turn, `O=C(O)c1nc2ccc(C(F)(F)F)cc2nc1NCc1ccc(F)cc1` gave a TGI above 100 µM.

As for `Oc1cc(O)cc(-c2nc3cc(F)ccc3s2)c1`, the TGI was above 100 µM.

The next experiment concerns COLO 205 colon. As to the kind of experiment: inhibition of tumour cell growth, NCI panel, 48 h.
In turn, `COc1ccc(C2OC(N)=C(C#N)C3=C2CCCC3C)cc1OC` (configuration not stated) showed a TGI above 100 µM.

In turn, `COc1ccc(CC2c3cc(OC)c(OC)cc3CC[N+]2(C)C)cc1OC` (configuration not stated) yielded a TGI above 100 µM.

With `O=C(O)c1nc2ccc(C(F)(F)F)cc2nc1NCc1ccc(F)cc1`, the TGI turned out to be 44.6 µM.

`Oc1cc(O)cc(-c2nc3cc(F)ccc3s2)c1`: the TGI amounted to 40 µM.

The subject of a further experiment is DU-145 prostate. The experiment is described as follows: inhibition of tumour cell growth, NCI panel, 48 h.
Compound `COc1ccc(C2OC(N)=C(C#N)C3=C2CCCC3C)cc1OC` (configuration not stated) came in with a TGI above 100 µM.

Compound `COc1ccc(CC2c3cc(OC)c(OC)cc3CC[N+]2(C)C)cc1OC` (configuration not stated) showed a TGI above 100 µM.

With `O=C(O)c1nc2ccc(C(F)(F)F)cc2nc1NCc1ccc(F)cc1`, the TGI was above 100 µM.

`Oc1cc(O)cc(-c2nc3cc(F)ccc3s2)c1` came in with a TGI above 100 µM.

In the next experiment the test system is EKVX NSCLC. The experiment is described as follows: inhibition of tumour cell growth, NCI panel, 48 h.
Compound `COc1ccc(C2OC(N)=C(C#N)C3=C2CCCC3C)cc1OC` (configuration not stated) showed a TGI above 100 µM.

Turning to `COc1ccc(CC2c3cc(OC)c(OC)cc3CC[N+]2(C)C)cc1OC` (configuration not stated), the TGI was above 100 µM.

With `O=C(O)c1nc2ccc(C(F)(F)F)cc2nc1NCc1ccc(F)cc1`, the TGI came to 68.3 µM.

The test system of another experiment is HCC-2998 colon. The experiment is described as follows: inhibition of tumour cell growth, NCI panel, 48 h.
`COc1ccc(CC2c3cc(OC)c(OC)cc3CC[N+]2(C)C)cc1OC` (configuration not stated) displayed a TGI above 100 µM.

Turning to `O=C(O)c1nc2ccc(C(F)(F)F)cc2nc1NCc1ccc(F)cc1`, the TGI was found to be 65.6 µM.

The subject of the next experiment is HCT-116 colon. As to the kind of experiment: inhibition of tumour cell growth, NCI panel, 48 h.
The compound `COc1ccc(C2OC(N)=C(C#N)C3=C2CCCC3C)cc1OC` (configuration not stated) showed a TGI above 100 µM.

For `COc1ccc(CC2c3cc(OC)c(OC)cc3CC[N+]2(C)C)cc1OC` (configuration not stated), the TGI was above 100 µM.

The compound `O=C(O)c1nc2ccc(C(F)(F)F)cc2nc1NCc1ccc(F)cc1` returned a TGI of 29.4 µM.

For the compound `Oc1cc(O)cc(-c2nc3cc(F)ccc3s2)c1`, the TGI worked out at 65.5 µM.

Another experiment relates to HCT-15 colon. The experiment is described as follows: inhibition of tumour cell growth, NCI panel, 48 h.
On to `COc1ccc(C2OC(N)=C(C#N)C3=C2CCCC3C)cc1OC` (configuration not stated), for which the TGI was above 100 µM.

Consider `COc1ccc(CC2c3cc(OC)c(OC)cc3CC[N+]2(C)C)cc1OC` (configuration not stated), for which the TGI was above 100 µM.

On to `O=C(O)c1nc2ccc(C(F)(F)F)cc2nc1NCc1ccc(F)cc1`, for which the TGI amounted to 87.5 µM.

As to `Oc1cc(O)cc(-c2nc3cc(F)ccc3s2)c1`, the TGI was 61.6 µM.

Another experiment relates to HL-60(TB) leukemia. The experiment is described as follows: inhibition of tumour cell growth, NCI panel, 48 h.
Turning to `COc1ccc(C2OC(N)=C(C#N)C3=C2CCCC3C)cc1OC` (configuration not stated), the TGI is above 100 µM.

With `COc1ccc(CC2c3cc(OC)c(OC)cc3CC[N+]2(C)C)cc1OC` (configuration not stated), the TGI was above 100 µM.

The next experiment deals with HOP-62 NSCLC. The experiment is described as follows: inhibition of tumour cell growth, NCI panel, 48 h.
In the case of `O=C(O)c1nc2ccc(C(F)(F)F)cc2nc1NCc1ccc(F)cc1`, the TGI was determined as 46.1 µM.

The test system of the next experiment is HOP-92 NSCLC. As to the kind of experiment: inhibition of tumour cell growth, NCI panel, 48 h.
As for `COc1ccc(CC2c3cc(OC)c(OC)cc3CC[N+]2(C)C)cc1OC` (configuration not stated), the TGI was above 100 µM.
